The source of these data is patent US11814371B2, “Heterocyclic compound” (MEDSHINE DISCOVERY INC., priority 2020, dated 2023).

Structures are written as SMILES. Read-outs that look alike come from different tables or passages of the source.

Data set [1] has as its system rat DME model induced by CA-1 (100 ng). The experiment in a line: In vivo pharmacodynamic study on rat DME model induced by CA-1 (retinal thickness by OCT). More on the design: species or system male SD rats. On the procedure:
20 rats were selected from 25 male SD rats and divided into 5 groups according to their body weight, with 4 rats in each group and 1 spare rat in each group, and all the animals were examined by optical coherence tomography before modeling, 48 hours and 72 hours after modeling, respectively. The appropriate scanning position for measurement was selected and the retinal thickness was marked. Through the changes of retinal thickness in each group, the effects of the test compounds on improving retinal edema were compared, and the active compounds were screened. The above experimental operations of modeling and inspection should follow the order of the right eye first and then the left eye.
• Species: Rat • Strain: SD rat, SPF grade • Age and weight: 7-8 weeks old, weighing 250-300 g • Sex: Male • Supplier: Zhejiang Vital River Laboratory Animal Technology Co., Ltd. • Animal certificate number: • 2.2 Molding agent • Carbonic anhydrase-1 (CA-1, Sigma) • 3. Experimental methods and procedures • 3.1 Administration and modeling
On the day of modeling, all animals were first administered the vehicle or the test compound orally, and about 4 hours later, the animals were injected with physiological saline (5 µL/eye) or CA-I (100 ng/eye) into the vitreous cavity of both eyes for modeling, and the end time of injection in the second eye was recorded as 0 hour, and the vehicle (10 % DMSO + 90 % labrasol) or the test compound was administered orally to all animals at 4±0.5 hours, 20±0.5 hours, 28±0.5 hours, 44±0.5 hours, 52±0.5 hours and 68±0.5 hours after modeling, respectively.
Before modeling, 48 hours and 72 hours after modeling, animals were first anesthetized, and then examined by optical coherence tomography (OCT), and before anesthesia, appropriate mydriatic agents were used to ensure that the pupils of animals were completely dilated, and the animals were anesthetized by a combination of intramuscular injection of Zoletil (5 mg/kg) and Xylazine solution (3 mg/kg). OCT inspection requirements are as follows: • 1) The optic disc should be placed in the center of the infrared fundus image during data collection; • 2) the retinal scan was performed in a “pozidriv” type, with the crossover point over the optic disc, and the retina was scanned at the widest length. • 3) The software tracking function was used as much as possible for comparison of retinal thickness before and after administration, and if the tracking function was not available, the eye position was adjusted as much as possible to be consistent with that before administration, and the clarity of the tomographic images was ensured as much as possible to facilitate comparison of retinal thickness before and after administration.

The nature of data set [2]: Pharmacokinetic test in rats after intravenous and intragastric administration (plasma, LC-MS/MS). Type of data set: in vivo. The following applies: male, SD, rat; for bioavailability: read-out: Bioavailability F; for AUC(0-inf): read-out: Curve area (o-inf) AUC0-inf; for AUC(0-t): read-out: Curve area (o-t) AUC0-last; for half-life: read-out: Half-life T½ (converted); for Tmax: read-out: Peak time Tmax; for Cmax: read-out: Plasma drug concentration Cmax; for Vd: read-out: Apparent volume of distribution Vdss; for clearance: read-out: Clearance rate Cl. On the procedure: Male SD rats were used as test animals, and LC-MS/MS method was used to determine the drug concentrations in plasma of rats at different times after intravenous and intragastric administration of test compounds. The pharmacokinetic behaviors of the compounds in rats were studied and the pharmacokinetic characteristics were evaluated.
2.2 Test animals: 28 healthy adult male SD rats were divided into 14 groups with 2 rats in each group. Animals were purchased from Beijing Vital River Laboratory Animal Technology Co., Ltd.
An appropriate amount of sample was weighed, and an appropriate amount of DMSO, polyoxyethylene castor oil and sterile water for injection were added in sequence according to the volume ratio of 10:10:80, then the mixture was stirred and sonicated to reach a clear state of 0.5 mg/mL for intravenous administration.
An appropriate amount of sample was weighed, and an appropriate amount of DMSO, polyoxyethylene castor oil and sterile water for injection were added in sequence according to the volume ratio of 10:10:80, then the mixture was stirred and sonicated to reach a clear or suspension state of 0.4 mg/mL for intragastric administration.
An appropriate amount of sample was weighed, and an appropriate amount of DMSO, polyoxyethylene castor oil and sterile water for injection were added in sequence according to the volume ratio of 10:10:80, then the mixture was stirred and sonicated to reach a clear state of 3 mg/mL for intravenous administration.
2.4 Administration: 28 male SD rats were divided into 14 groups, after fasting for one night, the intravenous administration group was administered with an administration volume of 2 mL/kg and a dose of 1 mg/kg; the intragastric administration group 1 was administered with an administration volume of 5 mL/kg and a dose of 2 mg/kg. The intragastric administration group 2 was administered with an administration volume of 10 mL/kg and a dose of 30 mg/kg.
After the compound was administered intravenously to male SD rats, 40 µL of blood was collected at 0.0833, 0.25, 0.5, 1, 2, 4, 8 and 24 hours, respectively, and placed in tubes containing 2 µL of EDTA-K2. After the compound was administered in the intragastric administration group, 40 µL of blood was collected at 0.25, 0.5, 1, 2, 4, 6, 10 and 24 hours, respectively, and placed in tubes containing 2 µL of EDTA-K2. The tubes were centrifuged at 4000 rpm for 15 minutes to separate the plasma, and stored at -60° C. Animals were allowed to eat 2 hours after administration.
LC-MS/MS method was used to determine the content of the test compounds in the plasma of rats after intravenous and intragastric administration. The linear range of the method was 2.00 - 6000 nmol/L; plasma samples were treated with acetonitrile to precipitate protein, and then analyzed.

Setting [3] is: oral 75 mg/kg, 48 hours after modeling.
[4] abbreviates: oral 75 mg/kg, 72 hours after modeling.
Setting [5] is: po, intragastric administration (group 1), nominal 2 mg/kg (actual dose in c2).
Setting [6] is: intravenous administration, nominal 1 mg/kg (actual dose in c2).
Setting [7] is: po, intragastric administration (group 2), nominal 30 mg/kg (actual dose in c2).

Regarding `COc1ccc(F)c(CNC(=O)c2cn(Cc3ccc(Cn4cc(F)ccc4=O)cc3)nc2C2COC2)c1F` [Compound 1], in data set [1] (oral 50 mg/kg, 48 hours after modeling), the “relief rate of retinal thickening” value was 19%. In data set [1] (oral 50 mg/kg, 72 hours after modeling), the “relief rate of retinal thickening” value was 79%. Moreover, the “relief rate of retinal thickening” value in data set [1] (setting [3]) is 100%. In addition, in data set [1] (setting [4]), the “relief rate of retinal thickening” value is recorded as 100%. In data set [2] (setting [5]), the bioavailability came to 15.3%, the AUC(0-inf) stood at 1.34 µM·h, the AUC(0-t) came out at 1.33 µM·h and the half-life is 93.6 min. Besides, in data set [2] (setting [5]), the Tmax turned out to be 30 min and the Cmax was 1140 nM. Also, in data set [2] (setting [6]), the Vd was 0.202 L/kg, the clearance stood at 7.09 mL/min/kg, the AUC(0-inf) was 4.38 µM·h and the AUC(0-t) came to 4.35 µM·h. In data set [2] (setting [6]), the half-life is 37.4 min.

Consider `COc1ccc(F)c(CNC(=O)c2cn(Cc3ccc(Cn4cc(F)ccc4=O)c(F)c3)nc2C2COC2)c1F` [Compound 8], for which, in data set [1] (setting [3]), the “relief rate of retinal thickening” value is recorded as 84%. In addition, the “relief rate of retinal thickening” value in data set [1] (setting [4]) was found to be 116%. In data set [2] (setting [5]), the bioavailability was determined as 11.2%, the AUC(0-inf) was 0.591 µM·h, the AUC(0-t) turned out to be 0.584 µM·h and the half-life is 94.2 min. Besides, in data set [2] (setting [5]), the Tmax was found to be 15 min and the Cmax was found to be 680 nM. Besides, in data set [2] (setting [7]), the bioavailability came out at 54%, the AUC(0-inf) stood at 42.5 µM·h, the AUC(0-t) was found to be 42.4 µM·h and the half-life is 115 min. Further, in data set [2] (setting [7]), the Tmax worked out at 15 min and the Cmax worked out at 18600 nM. Moreover, in data set [2] (setting [6]), the Vd came to 0.188 L/kg, the clearance is 12.2 mL/min/kg, the AUC(0-inf) is 2.62 µM·h and the AUC(0-t) was determined as 2.62 µM·h. For the same compound, the half-life in data set [2] (setting [6]) is 23.5 min.
